# Patent US20040121992A1, “Therapeutic methods of reducing cholesterol accumulation” (priority 2002, published 2004)
# Where “and” joins values, the source holds several entries; their conditions need not be identical. Equal entries are not always repeated. Where two headings read alike, the source gives them in different places.
# Legend:
# [1] = tested on: SLOS fibroblasts; type: cell-based, human
# Protocol: The effect of 27-hydroxy-7-dehydrocholesterol on cholesterol synthesis was studied in CHO cells (Table 2). SLOS fibroblasts were plated at a density of 375,000 cells in a T-25 flask in DMEM containing 10% fetal bovine serum. After 24 hours, the media was changed to McCoy's 5A containing 7.5% lipoprotein deficient serum and 25% D2O. To these cultures, either 5 μM of 27-hydroxycholesterol or 27-hydroxy-7-dehydrocholesterol in hydroxypropyl-β-cyclodextrin were added. Control cultures had only the vehicle added. Media was changed on day 3 and cell pellets were obtained on day 5. Newly synthesized 7-DHC was determined by a combination of GLC-FID and GLC-MS. At a medium concentration of 5 μM 27-hydroxy-7-dehydrocholesterol, the synthesis rate of 7-DHC fell to less than 2 ng/day/T-25 flask in each cell line. […] In untreated cultures, the rates of 7-DHC synthesis were 326±8 and 1414±88 ng/day/T-25 flask (mean±SD) for A2SLO and 4350SLO respectively.
# [2] = tested on: CHO cells; type: cell-based; settings: for % new chol / ug cholest. / ug new chl / 372/368: 5 uM, CHO cells; for % new chol / ug cholest. / ug new chl: duplicate samples; for 372/368: ion ratio m/z 372 to m/z 368, duplicate samples
Structure (SMILES),metabolism to 27-hydroxycholesterol in SLOS fibroblasts [1],"synthesis rate of 7-DHC ([1]; medium concentration 5 μM, each cell line (A2SLO and 4350SLO), untreated 326±8 and 1414±88)",% new chol [2],ug cholest. [2],ug new chl [2],372/368 [2],"inhibition of cholesterol synthesis compared with an equimolar amount of 27-hydroxycholesterol ([2]; 5 μM, cell culture)",inhibition of cholesterol synthesis (in words) ([2]; cell culture assays),% new chol ([2]; listed as 27OH),ug cholest. ([2]; listed as 27OH),ug new chl ([2]; listed as 27OH),372/368 ([2]; listed as 27OH)
"CC(CO)CCC[C@@H](C)[C@H]1CC[C@H]2C3=CC=C4C[C@@H](O)CC[C@]4(C)[C@H]3CC[C@]12C (stereo partly drawn) [27-hydroxy-7-dehydrocholesterol, cholesta-5,7-diene-3β-27 diol]",did not metabolize,less than 2 ng/day/T-25 flask,2.6% and 2.9%,29.5 µg and 32.6 µg,0.78 µg and 0.95 µg,0.0079 and 0.0087,slightly greater,potent inhibitor of cholesterol synthesis,,,,
"CC(CO)CCC[C@@H](C)[C@H]1CC[C@H]2[C@@H]3CC=C4C[C@@H](O)CC[C@]4(C)[C@H]3CC[C@]12C (stereo partly drawn) [27-hydroxycholesterol, cholest-5-ene-3 β, 27-diol, reference compound]",,,,,,,,,4.4% and 3.6%,29.9 µg and 33.1 µg,1.3 µg and 1.2 µg,0.013 and 0.011
